What was measured:
[1] = tested on: A2780 ovarian cells; assay: A2780 Ovarian Cell Proliferation Assay in Lipid Reduced Medium, with Palmitate (control); type: cell-based; conditions: Homo sapiens, A2780, 96 h, read-out: Proliferation A2780 with Palmitate pIC50 (μM) (converted)
In short: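 A2780 cells were seeded in RPMI1640 with 10% FCS, then switched next day to medium with 10% lipid-reduced serum. Compound was added with final 25 μM palmitate, 0.2% fatty-acid-free BSA and 0.2% DMSO, and incubated 96 h at 37 °C. Read-out was MTT absorbance at 544 nm; pIC50 = −log(IC50) from curve fit.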

[2] = Cytotoxicity in HepG2 cells (Resazurin assay); type: cell-based; conditions: human, read-out: CC50 (Toxicity HepG2-4d)
Description: (§1) The anti-HBV activity was measured using the HepG2.117 cell line, a stable, inducibly HBV producing cell line (SUN D., et al., “Stable HepG2- and Huh7-based human hepatoma cell lines for efficient regulated expression of infectious hepatitis B virus”, J. of Hepatology, 2006, pp 636-645, Vol. 45) which replicates HBV in the absence of doxycycline (Tet-off system). For the antiviral assay, HBV replication was induced, followed by a treatment with serially diluted compound in 96-well plates in duplicate. After 3 days of treatment, the antiviral activity was determined by quantification of intracellular or extracellular HBV DNA using realtime PCR and an HBV specific primer set and probe. Cytotoxicity of the test compounds was tested using HepG2 cells, incubated for 4 days in the presence of test compounds. The viability of the cells was assessed using a Resazurin assay. The CC50 was defined as the 50% concentration for cytotoxicity

[3] = Toxicity Huh7-ATP (cytotoxicity alongside the HCV replicon assay); conditions: human, Huh7 cells
[4] = tested on: LNCaP_Vancouver prostate cells; assay: In Vitro LNCaP Vancouver Prostate Cell Proliferation Assay in Lipid Reduced Medium; type: cell-based; conditions: lipid reduced serum, 96 h, read-out: Vancouver Cells pIC50 (converted)
Description: LNCaP_Vancouver prostate cells were obtained from the Vancouver Prostate Cancer Centre. Cells were maintained in RPMI-1640, 10% Fetal Calf Serum (FCS, Hyclone), 2 mM glutamine and 50 μg/ml Gentamicin.
For the proliferation experiment 1500 LNCaP_Vancouver cells per well were seeded in a 384-well black with clear bottom plate (costar 3712BC) in 40 μl RPMI-1640, 10% Lipid reduced serum (LRS, Hyclone), 50 μg/ml Gentamicin and 2 mM Glutamine and incubated at 37° C., 5% CO2. The next day 10 μl of test compound/DMSO diluted in medium was added (3E-5M, 1E-5M, 3E-6M, 1E-6M, 3E-7M, 1E-7M, 3E-8M, 1E-8M final concentration). Compounds were tested in duplicate. After 96 h incubation at 37° C., 5% CO2 25 μl ATP-glow mix was added. The plate was incubated for 30 min at 37° C. and luminescence was measured with the Envision.
(§2) pIC50 values were calculated as follows. Raw data generated by the instruments were normalized to % Controlmin values, which were calculated as: % Controlmin=100*(x−mLC)/(mHC−mLC),
(§3) where mLC and mHC are the means of the low control wells and high control wells on the plate, after manual exclusion of outliers. The relation between the % Controlmin values and concentration was fitted to a 4-parameter logistic curve using a non-linear least squares regression method to determine the pIC50 value. Outlying data points were excluded manually to get a correct fit. The pIC50 corresponds to −log 10(IC50), if the IC50 is expressed in molar units (http://www.ncbi.nlm.nih.gov/books/NBK91994). The IC50 parameter was always determined by non-linear regression, but one or more of the other parameters may have been held fixed on a relevant input value, such as 0 for the bottom values.
(§4) For dose response curves with FASN inhibitors in LNCaP_Vancouver or PC-3M-Luc_C6 cells the curves bottom out around 30 to 40% of the control value. A standard fit PL2, forcing the lower bound to this level was used.
(§5) Representative compounds of the present invention were tested according to the procedure as described in Biological Example 4a and 4b above, with results as listed in Table BIO-4, below.

[5] = tested on: HBV; assay: Antiviral Activity Against HBV Replication (HBV DNA, HepG2.117 cell line); type: cell-based; conditions: Hepatitis B virus, 72 h; HepG2.117 cells, 3 days, HBV DNA by realtime PCR
Description: as §1

[6] = tested on: PC-3M-Luc-C6 prostate cells; assay: In Vitro PC-3M-Luc-C6 Prostate Cell Proliferation Assay in Lipid Reduced Medium; type: cell-based; conditions: read-out: PC-3M-Luc-C6 Cells pIC50 (μM) (converted), lipid reduced serum, 96 h
Description: PC-3M-Luc-C6 prostate cells were obtained from Xenogen Corporation. Cells were maintained in MEM supplemented with 10% Fetal Calf Serum (FCS, Hyclone), 2 mM glutamine, 1 mM sodium pyruvate, 1% BME vitamins (available from for example, Sigma Aldrich), 0.1 mM non Essential Amino Acid and 50 μg/ml Gentamicin. The cells were passaged twice a week.
1000 PC-3M-Luc-C6 prostate cells (Xenogen) were seeded in a 384-well black with clear bottom plate (costar 3712BC) in 40 μl MEM, 10% LRS (Hyclo ne), 50 μg/ml Gentamicin, 2 mM Glutamine, 1 mM Sodium pyruvaat, 1% BME vitamins and 0.1 mM non Essential Amino Acid and incubated at 37° C., 5% CO2. The next day 10 μl test compound/DMSO diluted in medium was added (3E-5M, 1E-5M, 3E-6M, 1E-6M, 3E-7M, 1E-7M, 3E-8M, 1E-8M final concentration). Compounds were tested in duplicate. After 96 h incubation at 37° C., 5% CO2 25 μl ATP-glow mix was added. The plate was incubated for 30 min at 37° C. and luminescence was measured with the Envision.
as §2, §3, §4, §5

Which results are given for `Cc1ccc(C(=O)N2CCC(c3ccc(-c4cnn(C)c4)cc3)CC2)cc1NC(=O)c1ccc(NC(C)C)nc1` [Compound #32, 6-(isopropylamino)-N-(2-methyl-5-(4-(4-(1-methyl-1H-pyrazol-4-yl)phenyl)piperidine-1-carbonyl)phenyl)nicotinamide]?
IC50 [1]: 7.24 µM; CC50 at 4 days [2]: > 25 µM; CC50 [3]: > 25 µM; IC50 [4]: 0.0933 µM; EC50 [5]: > 5 µM; IC50 [6]: 0.01 µM

— patent US9562035B2, “Benzamide derivative useful as FASN inhibitors for the treatment of cancer” (Janssen Pharmaceutica NV, priority 2013, dated 2017)
